Source: BigSolDB 2.1

Cc1ccc(C)c(O)c1
Settings	solubility (mole fraction)
in ethyl acetate, 282.85 K	0.414
in ethyl acetate, 289.95 K	0.449
in ethyl acetate, 298.45 K	0.494
in ethyl acetate, 304.35 K	0.529
in ethyl acetate, 309.95 K	0.563
in ethyl acetate, 314.75 K	0.596
in ethyl acetate, 329.05 K	0.713
in methanol, 281.05 K	0.273
in methanol, 284.75 K	0.291
in methanol, 289.15 K	0.315
in methanol, 293.75 K	0.342
in methanol, 299.45 K	0.381
in methanol, 305.85 K	0.425
in methanol, 307.25 K	0.435
in methanol, 314.25 K	0.492
in methanol, 317.25 K	0.522
in methanol, 321.15 K	0.563
in n-butanol, 281.15 K	0.308
in n-butanol, 285.65 K	0.331
in n-butanol, 289.9 K	0.354
in n-butanol, 294.45 K	0.38
in n-butanol, 298.9 K	0.408
in n-butanol, 304.95 K	0.449
in n-butanol, 311.65 K	0.501
in n-butanol, 317.25 K	0.551
in n-butanol, 322.75 K	0.608
in n-butanol, 331.2 K	0.706
in n-hexanol, 282.6 K	0.325
in n-hexanol, 288.75 K	0.356
in n-hexanol, 293.25 K	0.378
in n-hexanol, 296.65 K	0.4
in n-hexanol, 300.35 K	0.424
in n-hexanol, 310.75 K	0.498
in n-hexanol, 321.65 K	0.598
in n-hexanol, 326.55 K	0.652
in n-hexanol, 331.05 K	0.707
in n-hexanol, 335.35 K	0.764
